Results as given in patent US20240241108A1, “LUNG ORGANOID MODEL AND METHOD OF USE” (The Regents of the University of California, priority 2021, published 2024).

How the values were obtained:
[1] = system: SARS-COV-2; conditions: cited from earlier work
[2] = system: SARS-COV-2; conditions: cited from earlier work; remark: listed apart in the source
[3] = system: SARS-COV-2; assay: Pre-clinical drug screen in SARS-COV-2-infected lung organoid monolayers (384-well), viral E gene qPCR readout; type: cell-based; conditions: FIG. 3G; for viral titer (abundance of E gene in the monolayers): pre-treated for 4 hours prior to infection, assessed at 48 hours post-infection, DMSO control
Procedure: Using the E gene as a readout, it was determined whether lung organoid models could be used as platforms for pre-clinical drug screens. The efficacy of nucleoside analog N^4-hydroxycytidine (NHC: EIDD-parent) and its derivative pro-drug. EIDD-2801, were tested. […] Lung organoid monolayers plated in 384-wells were pre-treated for 4 hours with the compounds or DMSO, as a control, prior to infection. The monolayers were assessed at 48 hours post-infection for the abundance of E gene in the monolayers.
Densely packed organoids, collected in PBS/0.5 mM EDTA were centrifuged at 200 rcf for 5 minutes. Organoids were dissociated in 2 mL trypLE Select (Gibco, USA) per 12 wells of organoids at 37 °C for 4-5 minutes and mechanically sheared by pipetting up and down. The TrypLE was inactivated with al-to-5 trypLE to Lung Wash Media ratio. The cells were thereafter centrifuged at 300 g for 4 minutes. The supernatant was aspirated and resuspended in the cell pellet at room temperature using PneumaCult Ex-Plus Mix, with larger clumps of cells being filtered out using […] filter. The viable cells were counted and plated using PneumaCult Ex-Plus media. Cells were either plated 10^5 cells per well in a 96 well plate, or 2×10^4 cells per well in a 384 well Matrigel coated plate. The media was changed after 24 hours of incubation. After 48 hours of plating, the cells were differentiated and appeared flattened. The cells were then infected with MOI of 0.5 with SARS-COV-2. After treatment, the lung monolayers were used for RNA sequencing, immunostaining, and other functional assay.
Lung organoid-derived monolayers or primary airway epithelial cells, either in 384 well plates or in transwells, were washed twice with antibiotic-free lung wash media. […]
Assessment of SARS-COV-2 infectivity test was determined by qPCR using TaqMan assays and TaqMan Universal PCR Master Mix96.97. cDNA was amplified with gene-specific primer/probe set for the E gene and qPCR was performed with the Applied Biosystems QuantStudio 3 Real-Time PCR System. […]

| SMILES | inhibition of viral replication in vitro [1] | inhibition of viral replication in SARS-COV-2-challenged ferrets [2] | efficacy compared with the parent compound (reduction of viral titer) ([3]; pre-treated 4 hours, 48 hours post-infection) | viral titer (abundance of E gene in the monolayers) [3] |
| --- | --- | --- | --- | --- |
| CC(C)C(=O)OC[C@H]1O[C@@H](n2ccc(NO)nc2=O)[C@H](O)[C@@H]1O [EIDD-2801] | inhibit viral replication | inhibit viral replication | showed a better efficacy | effectively reduced the viral titer in a dose-dependent manner |
| O=c1nc(NO)ccn1[C@@H]1O[C@H](CO)[C@@H](O)[C@H]1O [NHC, N^4-hydroxycytidine] | inhibit viral replication | inhibit viral replication | – | effectively reduced the viral titer in a dose-dependent manner |
